Tests used:
TbSTT3B = experiment: Kinetic assay with ssOST enzyme: in vitro glycosylation of acceptor peptide, UPLC readout; format: biochemical, Trypanosoma brucei; conditions: for completion of the glycosylation reaction: after an hour of incubation at room temperature, TbSTT3B
Experimental: In vitro glycosylation reactions were performed by mixing 50 nM purified TbSTT3A or 100 nM TbSTT3B protein, 15µM Phy-LLO or Dol20-LLO, 10 mM MnCl2, 150 mM NaCl, 20 mM HEPES pH 7.5, 0.035% DDM, 0.007% CHS and 20 µM of the acceptor peptide (for STT3A: 5CF-GSDANYTYTQ (SEQ ID No 33), for STT3B: 5CF-GSLANYTK (SEQ ID No 34)), […] 1 µL samples were taken at different time points and diluted in 10% ACN, 10 mM phosphate buffer pH 7. Samples were analyzed by reverse-phase chromatography using a UPLC Dionex UltiMate 3000 with an Accucore 150-C18 100 × 2.1 mm 2.6 µm column (Thermo Fisher Scientific)40. Peaks for glycopeptide and peptide were integrated using the Software ChromeleonTM, and the amount of produced glycopeptide was determined for each data point. Turnover rate determination was performed by fitting of the data to linear regression using PRISM software.

TbSTT3A = experiment: as above; format: biochemical, Trypanosoma brucei; conditions: compared to Dol20-PP-GlcNAc2Man5 as donor; 50 nM TbSTT3A, 15 µM LLO, 20 µM 5CF-GSDANYTYTQ, 30°C; Figure 3A
Experimental: In vitro glycosylation reactions were performed by mixing 50 nM purified TbSTT3A or 100 nM TbSTT3B protein, 15µM Phy-LLO or Dol20-LLO, 10 mM MnCl2, 150 mM NaCl, 20 mM HEPES pH 7.5, 0.035% DDM, 0.007% CHS and 20 µM of the acceptor peptide (for STT3A: 5CF-GSDANYTYTQ (SEQ ID No 33), for STT3B: 5CF-GSLANYTK (SEQ ID No 34)), and incubating at 30°C. 1 µL samples were taken at different time points and diluted in 10% ACN, 10 mM phosphate buffer pH 7. Samples were analyzed by reverse-phase chromatography using a UPLC Dionex UltiMate 3000 with an Accucore 150-C18 100 × 2.1 mm 2.6 µm column (Thermo Fisher Scientific)40. Peaks for glycopeptide and peptide were integrated using the Software ChromeleonTM, and the amount of produced glycopeptide was determined for each data point. Turnover rate determination was performed by fitting of the data to linear regression using PRISM software.

| Substance | completion of the glycosylation reaction (TbSTT3B) | turnover rate of glycosylation (TbSTT3A) | turnover rate (TbSTT3B; compared to Dol20-PP-GlcNAc2Man9 as substrate, 100 nM TbSTT3B, 15 µM LLO, 20 µM 5CF-GSLANYTK, 30°C, Figure 3B) |
| --- | --- | --- | --- |
| Dol20-PP-GlcNAc2Man9 [reference compound] | went to completion |  |  |
| phy-PP-GlcNAc2Man5 |  | almost identical |  |
| phy-PP-GlcNAc2Man9 | went to completion |  | somewhat slower |

— EP4600371A1, “CELL-FREE GLYCOSYLATION OF PEPTIDES AND PROTEINS” (ETH Zurich, priority 2024, dated 2025)
